Data reported in ChEMBL document CHEMBL3272028, “Some substituted naphthazarins as potential anticancer agents” (1976).
The source made the active and inactive calls. No cut-off for these calls is given here.

Assays:
L1210 = assay: Antitumor activity against mouse L1210 cells allografted in mouse; assay type: functional, cell-based
[1] = Growth inhibition of human 9KB cells at 1.8 ug/ml relative to control; assay type: functional; details: read-out: GI
P388 [2] = assay: Antitumor activity against mouse P388 cells allografted in mouse; assay type: functional, cell-based
P388 [3] = assay: Antitumor activity against mouse P388 cells allografted in mouse at 400 mg/kg relative to control; assay type: functional
P388 [4] = assay: Antitumor activity against mouse P388 cells allografted in mouse at 50 mg/kg relative to control; assay type: functional

Structure (SMILES)	Activity (L1210)	inhibition of growth at 1.8 µg/mL [1] [%]	Activity (P388 [2])	T/C (P388 [3])	T/C (P388 [4])
CC(=O)Oc1ccc(OC(C)=O)c2c1C(=O)C=CC2=O	inactive	50	inactive		
CC(=O)Oc1ccc(OC(C)=O)c2c1CC(C)=C(C)C2	inactive			126	
CC1=C(C)C(=O)c2c(OC(=O)c3ccccc3)ccc(OC(=O)c3ccccc3)c2C1=O	inactive				128
